Some test systems named below: K-562 leukemia; MCF7 breast; SNB-75 CNS; DU-145 prostate; A498 renal; SW-620 colon; COLO 205 colon; PC-3 prostate.
What all share (assay): NCI anticancer screen, dose series, 48 h

Each structure is given as a SMILES string.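 Cultured in 96-well plates, cells were exposed to test compound for 48 hours across five concentrations. GI50 marks 50% less growth. At the TGI there is no net growth.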 Where only a bound is given, the exact number is not on record here.

Regarding `C=C1C(=O)O[C@H]2[C@H]1CC/C(Cn1cc(-c3cc(C(F)(F)F)cc(C(F)(F)F)c3)nn1)=C\CC[C@@]1(C)O[C@@H]21`, the GI50 with K-562 leukemia was 0.238 µM; in the assay with MCF7 breast, 0.198 µM; with SNB-75 CNS it was 1.26 µM; with DU-145 prostate, 0.726 µM; in the assay on A498 renal it was 0.437 µM; in the assay on SW-620 colon, 0.19 µM. For the same molecule, the GI50 in the assay with COLO 205 colon is 0.141 µM; with PC-3 prostate it was 0.832 µM. In addition, the TGI worked out at 0.601 µM in the assay with K-562 leukemia; 1.19 µM in the assay on MCF7 breast; 2.52 µM in the assay with SNB-75 CNS; 2.02 µM in the assay on DU-145 prostate; 1.71 µM in the assay on A498 renal; 0.399 µM in the assay with SW-620 colon. In addition, the TGI in the assay on COLO 205 colon came out at 0.364 µM; with PC-3 prostate, 2.33 µM.
Regarding `c1ccc2[nH]c(-c3ccc(NN=Nc4ccncc4)cc3)nc2c1`, the GI50 in the assay with K-562 leukemia was 14.6 µM; in the assay on SNB-75 CNS, above 100 µM; in the assay on DU-145 prostate, 47 µM; in the assay with SW-620 colon, 49.7 µM; in the assay with COLO 205 colon, 27 µM; in the assay with PC-3 prostate it was 33 µM. Also, the TGI in the assay with K-562 leukemia was 61.8 µM; in the assay with SNB-75 CNS, above 100 µM; with DU-145 prostate it was above 100 µM; with SW-620 colon it was above 100 µM; in the assay with COLO 205 colon it was above 100 µM; in the assay with PC-3 prostate, above 100 µM.
For `Fc1ccc2c(c1)c(-c1nc(-c3c[nH]c4ncccc34)cs1)cn2CCCN1CCCCC1`, the GI50 in the assay with K-562 leukemia is 1.72 µM; in the assay with SNB-75 CNS, 1.34 µM; in the assay on DU-145 prostate, 1.74 µM; in the assay with A498 renal it was 2.57 µM; with SW-620 colon it was 1.92 µM; with COLO 205 colon, 1.73 µM. Further, the GI50 with PC-3 prostate was 1.69 µM. In addition, the TGI was 3.6 µM in the assay with K-562 leukemia; 2.98 µM with SNB-75 CNS; 3.26 µM with DU-145 prostate; 6.48 µM in the assay on A498 renal; 3.75 µM in the assay with SW-620 colon; 3.48 µM with COLO 205 colon. This molecule displayed a TGI in the assay on PC-3 prostate of 3.2 µM.
Regarding `O=C1CCCCCCCC/C=C\CC(c2ccco2)O1` (stereo not drawn), the GI50 in the assay with K-562 leukemia was 23.5 µM; with MCF7 breast, 4.81 µM; with SNB-75 CNS it was 21.2 µM; with DU-145 prostate, 44.8 µM; with SW-620 colon, 41.5 µM; in the assay on COLO 205 colon, 31.6 µM. In the assay with PC-3 prostate, the GI50 was 36.3 µM. The TGI was 73.8 µM in the assay with K-562 leukemia; above 100 µM in the assay with MCF7 breast; 61.8 µM in the assay with SNB-75 CNS; above 100 µM in the assay on DU-145 prostate; above 100 µM in the assay on SW-620 colon; above 100 µM in the assay on COLO 205 colon. Also, the TGI in the assay with PC-3 prostate was above 100 µM.
Turning to `CCOc1ccc(-c2nonc2NC(=O)c2cccc(C)c2)cc1OCC`, the GI50 in the assay with K-562 leukemia was above 100 µM; in the assay with SNB-75 CNS it was 14.5 µM; in the assay on DU-145 prostate it was above 100 µM; in the assay with SW-620 colon, above 100 µM; in the assay with COLO 205 colon, above 100 µM; in the assay with PC-3 prostate, above 100 µM. The TGI with K-562 leukemia is above 100 µM; in the assay with SNB-75 CNS it was 52.3 µM; with DU-145 prostate it was above 100 µM; with SW-620 colon it was above 100 µM; with COLO 205 colon, above 100 µM; in the assay on PC-3 prostate it was above 100 µM.
On to `Cc1ccc(/C=C2/SC(Nc3nc(-c4csc(NC5=NC(=O)/C(=C\c6ccc(C)cc6)S5)n4)cs3)=NC2=O)cc1`, for which the GI50 with K-562 leukemia was 1.91 µM; with MCF7 breast, 2.3 µM; in the assay on DU-145 prostate, 9.28 µM; in the assay with COLO 205 colon, 20.2 µM; with PC-3 prostate it was 6.52 µM. The TGI with K-562 leukemia, with MCF7 breast, in the assay with DU-145 prostate, with COLO 205 colon and in the assay on PC-3 prostate was above 50 µM in each case.
As to `COC(=O)C1=C(C(=O)ON)C2C=CC1(C(Cc1ccccc1)Nc1ccccc1)O2` (stereo not drawn), the GI50 was 2.42 µM in the assay with MCF7 breast; 8.9 µM in the assay with SNB-75 CNS; 2.01 µM with DU-145 prostate; 14.7 µM in the assay on A498 renal; 1.78 µM in the assay on COLO 205 colon; 5.58 µM in the assay with PC-3 prostate. In addition, the TGI with MCF7 breast is 6.59 µM; in the assay on SNB-75 CNS it was 21.2 µM; in the assay with DU-145 prostate it was 4.18 µM; with A498 renal, 27.9 µM; with COLO 205 colon, 3.33 µM; with PC-3 prostate, 19.9 µM.
`NC(=S)N/N=C(\Cc1nc2ccc(Cl)cc2[nH]c1=O)C(=O)Nc1ccc(Cl)cc1`: the TGI with MCF7 breast, in the assay with SNB-75 CNS, in the assay with DU-145 prostate, with SW-620 colon, in the assay on COLO 205 colon and in the assay with PC-3 prostate was above 100 µM in each case.
As for `CC(C)(C)c1nn(-c2ccccc2)c2c1C(=O)CSC(c1ccccc1Cl)N2` (stereo not drawn), the GI50 in the assay with K-562 leukemia is 0.583 µM; in the assay with MCF7 breast it was 1.03 µM; in the assay with SNB-75 CNS, 2.2 µM; in the assay on DU-145 prostate, 2.86 µM; in the assay on A498 renal it was 0.353 µM; in the assay on COLO 205 colon, 2.51 µM. Further, the GI50 in the assay on PC-3 prostate is 1.62 µM. The TGI came to 14.9 µM with K-562 leukemia; 13.5 µM in the assay with MCF7 breast; 13.9 µM in the assay on SNB-75 CNS; 10.7 µM in the assay with DU-145 prostate; 3.78 µM in the assay with A498 renal; 6.01 µM with COLO 205 colon. The molecule also came in with a TGI in the assay with PC-3 prostate of 16.5 µM.
As for `Cc1ccc(-n2c3c(c4c(CN(C)C)c(O)ccc42)CCc2ccccc2C3=O)cc1`, the GI50 in the assay on K-562 leukemia is 10.2 µM; in the assay on MCF7 breast, 19 µM; in the assay with DU-145 prostate, 37.3 µM; in the assay with A498 renal, 15.1 µM; in the assay with SW-620 colon, 15.1 µM; with COLO 205 colon it was above 100 µM. Also, in the assay on PC-3 prostate, the GI50 is 17.5 µM. Also, the TGI is 25.9 µM in the assay with K-562 leukemia; 38.8 µM in the assay on MCF7 breast; above 100 µM with DU-145 prostate; 49.1 µM with A498 renal; 33.7 µM in the assay on SW-620 colon; above 100 µM with COLO 205 colon. The TGI with PC-3 prostate is 38.4 µM.
With `CCc1c(C#N)c(S[C@@H](C(N)=O)c2ccccc2)nc(N(C)C)c1C#N`, the GI50 with SNB-75 CNS was 2.11 µM; in the assay with DU-145 prostate, above 100 µM; with A498 renal, 1.3 µM; in the assay with SW-620 colon, above 100 µM; in the assay with COLO 205 colon, above 100 µM. Also, the TGI in the assay on SNB-75 CNS was 7.18 µM; in the assay with DU-145 prostate, above 100 µM; with A498 renal, 9.47 µM; with SW-620 colon it was above 100 µM; in the assay on COLO 205 colon, above 100 µM.
Take `O=C1C(Cl)=C(Nc2cccc(Cl)c2)C(=O)N1Cc1ccccc1Cl`: the GI50 is 1.87 µM in the assay with K-562 leukemia; 5.18 µM with MCF7 breast; 5.48 µM in the assay with SNB-75 CNS; 18.2 µM with DU-145 prostate; 11.8 µM in the assay on A498 renal; 2.82 µM with SW-620 colon. The GI50 in the assay with PC-3 prostate was 4.8 µM. Besides, the TGI in the assay on K-562 leukemia amounted to 8.91 µM; in the assay on MCF7 breast it was 21.2 µM; in the assay with SNB-75 CNS, 30 µM; with DU-145 prostate it was 38.1 µM; in the assay on A498 renal, 24.8 µM; in the assay on SW-620 colon, 18.6 µM. The TGI with PC-3 prostate came to 21.3 µM.
